Patent publication US20240124412A1, “IKAROS ZINC FINGER FAMILY DEGRADERS AND USES THEREOF” (Gilead Sciences, Inc., priority 2021, published 2024)

Tests used:
IKZF1 = target: T1, IKZF1 (Homo sapiens, UniProt Q13422+Q96SW2); assay: HiBiT protein tagging assay, in vitro IKZF1 degradation (HEK293); format: cell-based; settings: HEK293, 18-24 hr incubation, normalized to DMSO control; for Dmax: read-out: IKZF1 Dmax (maximum degradation at the highest concentration tested); for DC50: read-out: IKZF1 EC50
T1 construct: expressed in transfected cells
Summary of the method: (§1)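 Flp-In T-REx HEK293 pools stably expressing C-terminal HiBiT-tagged IKZF1 or IKZF2 were induced overnight with 1 μg/ml doxycycline. Cells were then treated with serially diluted compound for 18-24 hr at 37 °C and read by Nano-Glo lytic luminescence. Data were normalized to 0.5% DMSO as POC; EC50 and Dmax (maximum degradation at highest concentration tested) reported.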

IKZF2 = target: T2, IKZF2 (Homo sapiens, UniProt Q96SW2+Q9UKS7); assay: HiBiT protein tagging assay, in vitro IKZF2 degradation (HEK293); format: cell-based; settings: HEK293, 18-24 hr incubation, normalized to DMSO control; for Dmax: HEK293, HiBiT assay, read-out: IKZF2 Dmax (maximum degradation at the highest concentration tested); for DC50: read-out: IKZF2 EC50
T2 construct: expressed in transfected cells
Summary of the method: as §1

T1 sequence (Q13422 whole entry): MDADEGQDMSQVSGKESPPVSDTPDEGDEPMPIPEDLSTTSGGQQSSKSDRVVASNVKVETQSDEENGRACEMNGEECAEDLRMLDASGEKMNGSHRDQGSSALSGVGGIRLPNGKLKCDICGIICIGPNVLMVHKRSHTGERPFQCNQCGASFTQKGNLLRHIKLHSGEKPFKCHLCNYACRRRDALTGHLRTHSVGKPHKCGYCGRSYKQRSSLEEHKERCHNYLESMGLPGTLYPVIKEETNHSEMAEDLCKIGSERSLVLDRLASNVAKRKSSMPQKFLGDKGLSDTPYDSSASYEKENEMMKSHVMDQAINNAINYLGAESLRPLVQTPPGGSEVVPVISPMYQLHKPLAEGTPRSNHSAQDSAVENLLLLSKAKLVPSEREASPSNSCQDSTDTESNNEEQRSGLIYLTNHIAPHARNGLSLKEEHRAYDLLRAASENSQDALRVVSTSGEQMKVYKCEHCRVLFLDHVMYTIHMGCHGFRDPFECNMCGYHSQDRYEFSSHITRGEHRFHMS
T1 sequence (Q96SW2 whole entry): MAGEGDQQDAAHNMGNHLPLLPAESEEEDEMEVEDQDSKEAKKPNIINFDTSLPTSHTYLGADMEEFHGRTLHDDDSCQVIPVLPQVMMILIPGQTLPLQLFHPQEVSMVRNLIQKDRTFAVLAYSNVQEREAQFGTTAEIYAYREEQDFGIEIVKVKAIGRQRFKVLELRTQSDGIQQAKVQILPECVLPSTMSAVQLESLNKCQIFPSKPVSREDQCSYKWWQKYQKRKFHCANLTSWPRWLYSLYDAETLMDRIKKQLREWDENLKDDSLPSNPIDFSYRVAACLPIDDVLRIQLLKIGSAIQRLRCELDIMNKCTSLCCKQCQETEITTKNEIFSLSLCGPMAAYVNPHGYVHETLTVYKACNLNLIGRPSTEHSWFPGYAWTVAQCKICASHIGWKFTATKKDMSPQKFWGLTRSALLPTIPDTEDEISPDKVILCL
T1 sequence (Q16531 whole entry partner): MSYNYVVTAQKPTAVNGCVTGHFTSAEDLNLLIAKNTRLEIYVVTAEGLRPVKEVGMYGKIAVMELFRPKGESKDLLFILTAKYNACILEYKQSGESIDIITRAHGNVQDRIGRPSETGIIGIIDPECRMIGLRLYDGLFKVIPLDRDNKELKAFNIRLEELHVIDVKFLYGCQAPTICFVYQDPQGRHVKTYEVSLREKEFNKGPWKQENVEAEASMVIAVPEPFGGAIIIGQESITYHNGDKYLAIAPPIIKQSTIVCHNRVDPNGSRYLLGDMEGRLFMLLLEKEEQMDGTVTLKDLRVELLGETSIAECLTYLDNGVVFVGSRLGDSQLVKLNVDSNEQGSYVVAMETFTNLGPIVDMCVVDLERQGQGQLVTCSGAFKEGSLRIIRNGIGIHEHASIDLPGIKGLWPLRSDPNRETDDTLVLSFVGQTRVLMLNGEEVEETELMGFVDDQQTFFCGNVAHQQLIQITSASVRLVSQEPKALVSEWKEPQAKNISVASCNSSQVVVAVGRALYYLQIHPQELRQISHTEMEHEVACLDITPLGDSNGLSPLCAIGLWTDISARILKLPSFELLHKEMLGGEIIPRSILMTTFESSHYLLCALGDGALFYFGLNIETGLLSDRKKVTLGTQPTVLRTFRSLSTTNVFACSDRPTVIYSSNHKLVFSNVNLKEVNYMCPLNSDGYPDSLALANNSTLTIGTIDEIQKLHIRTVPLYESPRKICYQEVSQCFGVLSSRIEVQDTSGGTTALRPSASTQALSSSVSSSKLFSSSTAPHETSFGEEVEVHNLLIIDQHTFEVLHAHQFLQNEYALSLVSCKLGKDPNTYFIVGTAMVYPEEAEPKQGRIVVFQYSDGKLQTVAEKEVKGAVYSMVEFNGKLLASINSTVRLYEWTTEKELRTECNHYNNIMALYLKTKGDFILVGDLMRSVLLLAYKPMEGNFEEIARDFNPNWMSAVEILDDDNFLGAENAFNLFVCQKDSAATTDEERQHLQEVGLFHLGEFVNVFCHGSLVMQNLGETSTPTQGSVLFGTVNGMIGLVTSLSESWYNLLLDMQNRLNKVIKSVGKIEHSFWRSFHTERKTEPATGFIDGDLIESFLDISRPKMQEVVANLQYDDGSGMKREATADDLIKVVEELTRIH
T2 sequence (Q9UKS7 1-500 isoform Q9UKS7-2): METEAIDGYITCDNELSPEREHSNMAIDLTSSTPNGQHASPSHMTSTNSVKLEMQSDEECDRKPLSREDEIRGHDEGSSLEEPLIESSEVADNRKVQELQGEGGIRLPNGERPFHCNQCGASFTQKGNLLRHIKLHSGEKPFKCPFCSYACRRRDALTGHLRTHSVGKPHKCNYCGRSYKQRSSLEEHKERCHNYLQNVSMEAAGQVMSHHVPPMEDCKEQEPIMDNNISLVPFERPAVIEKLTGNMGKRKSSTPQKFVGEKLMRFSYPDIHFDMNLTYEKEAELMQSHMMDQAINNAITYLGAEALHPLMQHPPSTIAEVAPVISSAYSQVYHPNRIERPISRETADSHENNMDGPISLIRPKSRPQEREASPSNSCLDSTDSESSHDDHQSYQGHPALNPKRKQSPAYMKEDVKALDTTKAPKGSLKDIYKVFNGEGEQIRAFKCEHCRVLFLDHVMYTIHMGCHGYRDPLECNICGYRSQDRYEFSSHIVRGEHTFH
T2 sequence (Q96SW2 whole entry): as the sequence (Q96SW2 whole entry) above
T2 sequence (Q16531 whole entry partner): as the sequence (Q16531 whole entry partner) above

| SMILES | Dmax (IKZF1) [%] | DC50 (IKZF1) [nM] | Dmax (IKZF2) [%] | DC50 (IKZF2; HiBiT assay) [nM] | IKZF1 Dmax (maximum degradation at the highest concentration tested) (IKZF1) [%] | IKZF2 Dmax (maximum degradation at the highest concentration tested) (IKZF2; HiBiT assay) [%] |
| --- | --- | --- | --- | --- | --- | --- |
| CC1(c2ccccc2)CCC(NCc2ccc3c(c2)CN(C2CCC(=O)NC2=O)C3=O)CC1 (stereo not drawn) [Example 103, 3-(5-(((4-methyl-4-phenylcyclohexyl)amino)methyl)-1-oxoisoindolin-2-yl)piperidine-2,6-dione] | 97 | 3 | 91 | 23 | – | – |
| O=C1CCC(N2Cc3cc(CN[C@H]4CCCC[C@H]4CO)ccc3C2=O)C(=O)N1 (stereo partly drawn) [Example 39, 3-(5-((((1S,2R)-2-(hydroxymethyl)cyclohexyl)amino)methyl)-1-oxoisoindolin-2-yl)piperidine-2,6-dione] | – | > 10000 | 37 | 4100 | – | – |
| O=C1CCC(N2Cc3cc(CNC4CC5CCC(C5)C4)ccc3C2=O)C(=O)N1 (stereo not drawn) [Example 105] | 75 | 74 | 92 | 43 | – | – |
| O=C1CCC(N2Cc3cc(CNCc4cc5ccccc5[nH]4)ccc3C2=O)C(=O)N1 (stereo not drawn) [Example 64] | 80 | 61 | 45 | 276 | – | – |
| O=C1CCC(N2Cc3cc(CN[C@@H]4CCCN(Cc5ccc(Cl)cc5)C4)ccc3C2=O)C(=O)N1 (stereo partly drawn) [Example 100, 3-(5-((((R)-1-(4-chlorobenzyl)piperidin-3-yl)amino)methyl)-1-oxoisoindolin-2-yl)piperidine-2,6-dione] | 98 | 1 | 97 | 6 | – | – |
| O=C1CCC(N2Cc3cc(CNC4CC5CC(C5)C4)ccc3C2=O)C(=O)N1 (stereo not drawn) [Example 74] | 53 | 52 | 82 | 48 | – | – |
| O=C1CCC(N2Cc3cc(CN[C@H]4CC[C@](O)(c5ccccc5)CC4)ccc3C2=O)C(=O)N1 (stereo partly drawn) [Example 65] | 86 | 29 | 90 | 67 | – | – |
| O=C1CCC(N2Cc3cc(CNC4CCOCC4)ccc3C2=O)C(=O)N1 (stereo not drawn) [Example 6, 3-(1-oxo-5-(((tetrahydro-2H-pyran-4-yl)amino)methyl)isoindolin-2-yl)piperidine-2,6-dione] | 92 | 148 | 78 | 181 | – | – |
| N#C[C@H]1CC[C@H](NCc2ccc3c(c2)CN(C2CCC(=O)NC2=O)C3=O)CC1 (stereo partly drawn) [Example 80] | 57 | 253 | 92 | 166 | – | – |
| O=C1CCC(N2Cc3cc(CNC4CCN(Cc5ccccc5)C(=O)C4)ccc3C2=O)C(=O)N1 (stereo not drawn) [Example 62] | – | 886 | – | 1700 | 27 | 27 |
| O=C1CCC(N2Cc3cc(CNCCCO)ccc3C2=O)C(=O)N1 (stereo not drawn) [Example 55] | 36 | 394 | 20 | 1300 | – | – |
| O=C1CCC(N2Cc3cc(CNC4CCC4)ccc3C2=O)C(=O)N1 (stereo not drawn) [Example 41] | 31 | 51 | 42 | 373 | – | – |
| O=C1CCC(N2Cc3cc(CNC4CC5CCC4C5)ccc3C2=O)C(=O)N1 (stereo not drawn) [Example 42, 3-(5-((exo-bicyclo[2.2.1]heptan-2-ylamino)methyl)-1-oxoisoindolin-2-yl)piperidine-2,6-dione] | 30 | 85 | 65 | 193 | – | – |
| C[C@@H](CO)NCc1ccc2c(c1)CN(C1CCC(=O)NC1=O)C2=O (stereo partly drawn) [Example 53] | 24 | 289 | 20 | 460 | – | – |
| O=C1CCC(N2Cc3cc(CN[C@H]4C[C@@H](O)C4)ccc3C2=O)C(=O)N1 (stereo partly drawn) [Example 54] | 28 | 367 | 33 | 2800 | – | – |
| O=C1CCC(N2Cc3cc(CNC4CCC5(CCOCC5)CC4)ccc3C2=O)C(=O)N1 (stereo not drawn) [Example 88] | 64 | 297 | 91 | 296 | – | – |
| O=C1CCC(N2Cc3cc(CNC4CCN(Cc5ccccc5)C(=O)C4)ccc3C2=O)C(=O)N1 (stereo not drawn) [Example 61] | 27 | – | 29 | 1400 | – | – |
| O=C1CCC(N2Cc3cc(CNC4CCN(Cc5ccccc5)CC4)ccc3C2=O)C(=O)N1 (stereo not drawn) [Example 1, 3-(5-(((1-benzylpiperidin-4-yl)amino)methyl)-1-oxoisoindolin-2-yl)piperidine-2,6-dione] | 51 | 255 | 67 | 342 | – | – |
| O=C1CCC(N2Cc3cc(CNC4CCCC(CO)C4)ccc3C2=O)C(=O)N1 (stereo not drawn) [Example 97, 3-(5-((((1,3-trans)-3-(hydroxymethyl)cyclohexyl)amino)methyl)-1-oxoisoindolin-2-yl)piperidine-2,6-dione] | 64 | 5100 | 66 | 1800 | – | – |
| O=C1CCC(N2Cc3cc(CNC4CCN(c5ccccn5)CC4)ccc3C2=O)C(=O)N1 (stereo not drawn) [Example 35, 3-(1-oxo-5-(((1-(pyridin-2-yl)piperidin-4-yl)amino)methyl)isoindolin-2-yl)piperidine-2,6-dione] | 85 | 28 | 88 | 111 | – | – |
| O=C1CCC(N2Cc3cc(CNC4Cc5ccccc5N(Cc5ccccc5)C4)ccc3C2=O)C(=O)N1 (stereo not drawn) [Example 25, 3-(5-(((1-benzyl-1,2,3,4-tetrahydroquinolin-3-yl)amino)methyl)-1-oxoisoindolin-2-yl)piperidine-2,6-dione] | 38 | 84 | 39 | 1800 | – | – |
| N#C[C@H]1CC[C@@H](NCc2ccc3c(c2)CN(C2CCC(=O)NC2=O)C3=O)CC1 (stereo partly drawn) [Example 87] | 86 | 84 | 89 | 182 | – | – |
| O=C1CCC(N2Cc3cc(CN[C@H]4CC[C@@H](c5ccccc5)CC4)ccc3C2=O)C(=O)N1 (stereo partly drawn) [Example 31, 3-(1-oxo-5-((((1,4-cis)-4-phenylcyclohexyl)amino)methyl)isoindolin-2-yl)piperidine-2,6-dione] | 97 | 3 | 83 | 40 | – | – |
| O=C1CCC(N2Cc3cc(CN[C@H]4CC[C@H](c5ccccc5)CC4)ccc3C2=O)C(=O)N1 (stereo partly drawn) [Example 32, 3-(1-oxo-5-((((1,4-trans)-4-phenylcyclohexyl)amino)methyl)isoindolin-2-yl)piperidine-2,6-dione] | 48 | 54 | 85 | 71 | – | – |
| O=C1CCC(N2Cc3cc(CN[C@H]4CC[C@H](C(F)(F)F)CC4)ccc3C2=O)C(=O)N1 (stereo partly drawn) [Example 77] | 59 | 144 | 74 | 171 | – | – |

Results, then the compound that gave them:

| Dmax (IKZF1) [%] | DC50 (IKZF1) [nM] | Dmax (IKZF2) [%] | DC50 (IKZF2; HiBiT assay) [nM] | IKZF1 Dmax (maximum degradation at the highest concentration tested) (IKZF1) [%] | IKZF2 Dmax (maximum degradation at the highest concentration tested) (IKZF2; HiBiT assay) [%] | SMILES |
| --- | --- | --- | --- | --- | --- | --- |
| 50 | 137 | 88 | 97 | – | – | COC(=O)C1(C)CCCC(NCc2ccc3c(c2)CN(C2CCC(=O)NC2=O)C3=O)C1 (stereo not drawn) [Example 144] |
| 87 | 4 | 97 | 8 | – | – | O=C1CCC(N2Cc3cc(CN[C@@H]4CCC[C@H](Cc5ccccc5)C4)ccc3C2=O)C(=O)N1 (stereo partly drawn) [Example 115] |
| 95 | 10 | 87 | 56 | – | – | O=C1CCC(N2Cc3cc(CN[C@@H]4CCCN(C(c5ccccc5)C(F)(F)F)C4)ccc3C2=O)C(=O)N1 (stereo partly drawn) [Example 123] |
| 26 | 374 | 99 | 218 | – | – | O=C1CCC(N2Cc3cc(CNC45CCC(CO)(CC4)C5)ccc3C2=O)C(=O)N1 (stereo not drawn) [Example 142] |
| – | > 10000 | 89 | 111 | – | – | C[C@@H]1[C@@H](NCc2ccc3c(c2)CN(C2CCC(=O)NC2=O)C3=O)C[C@H]2C[C@@H]1C2(C)C (stereo partly drawn) [Example 134] |
| 66 | 131 | 43 | 443 | – | – | O=C1CCC(N2Cc3cc(CN[C@H]4CCC[C@@H]4NCc4ccccc4)ccc3C2=O)C(=O)N1 (stereo partly drawn) [Example 157, 3-(5-((((1S,2S)-2-(benzylamino)cyclopentyl)amino)methyl)-1-oxoisoindolin-2-yl)piperidine-2,6-dione] |
| 51 | 335 | 78 | 453 | – | – | CC1(C)C[C@]2(CC[C@@H](NCc3ccc4c(c3)CN(C3CCC(=O)NC3=O)C4=O)CC2)CO1 (stereo partly drawn) [Example 118] |
| 58 | 146 | 84 | 97 | – | – | O=C1CCC(N2Cc3cc(CNC4CCCC5(CC5)C4)ccc3C2=O)C(=O)N1 (stereo not drawn) [Example 132] |
| 93 | 5 | 94 | 9 | – | – | O=C1CCC(N2Cc3cc(CN[C@@H]4CCC[C@H](COCc5ccccc5)C4)ccc3C2=O)C(=O)N1 (stereo partly drawn) [Example 146] |
| 27 | 96 | 95 | 49 | – | – | CC1(NCc2ccc3c(c2)CN(C2CCC(=O)NC2=O)C3=O)CCCCC1 (stereo not drawn) [Example 113] |
| – | > 1000 | 26 | 109 | – | – | C[C@@H]1[C@H]2C[C@@H](C[C@H]1NCc1ccc3c(c1)CN(C1CCC(=O)NC1=O)C3=O)C2(C)C (stereo partly drawn) [Example 139] |
| 93 | 99 | 95 | 204 | – | – | O=C1CCC(N2Cc3cc(CN[C@@H]4CCC[C@H]([C@H](O)c5ccccc5)C4)ccc3C2=O)C(=O)N1 (stereo partly drawn) [Example 136] |
